Experimental findings from patent US6420367B1, “Pyrimidine derivatives exhibiting antitumor activity” (Shionogo & Co., Ltd., priority 1998, dated 2002) are described below.

Converted amounts (≈) assume the structure as drawn.

In experiment [1] the test system is DT-R cells (pRRE3-luc-transfected v-ki-ras-transformed NIH3T3 cells); signal derived from Ras oncogene products. Put plainly: Inhibitory effect against cellular signaling derived from Ras oncogene products: luciferase reporter, dissociation of DT-R from DT-C activity (MAC). The format is cell-based, mouse. Conditions: minimal tested concentration at which luciferase activities of DT-C cells and DT-R cells dissociated. The method, boiled down: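 Value is a minimal active concentration: lowest dose where Ras-responsive reporter (DT-R) luciferase diverges from SV40-minimal-promoter control (DT-C). Both transfected v-Ki-ras NIH3T3 lines received 3-fold serial dilutions for 24 h at 37 °C in 10% FCS medium before lysis and luminometry.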

The test system of experiment [2] is DT-C cells (pGV-P-transfected v-ki-ras-transformed NIH3T3 cells). Kind of experiment: Luciferase activity in control DT-C cells (IC50-C): non-specific transcription-inhibitory effect or cytotoxicity. Conditions: tested concentration nearest to 50% inhibition in DT-C cells; index of non-specific transcription inhibition or cytotoxicity. The format is cell-based, mouse. The source says:
Test Example 1 Inhibitory Effect Against Cellular Signaling Derived From Ras Oncogene Products
1) Establishment of Cell Lines Used in Assay
Based on the reporter plasmid (pGV-P (Toyo Ink, Japan)), in which luciferase gene was ligated to SV40-derived minimal promoter, we constructed a plasmid designated pRRE3-luc by inserting 3 copies of chemically synthesized oligonucleotides (Sequence: CAGGATATGACTCT, derived from mouse NVL-3 (M. A. Reddy et al.(1992)Mol. Endocrinol., 6, 1051)) into upstream of the promoter. v-ki-ras-transformed NIH3T3 cells (DT cells, provided by Dr. Makoto Noda (Kyoto Univ., School of medicine)) were transfected with this plasmid by liposome-mediated transfection and transfected cell lines stably incorporated and maintained each plasmid were obtained. We named pGV-P and pRRE3-transfected cell line as DT-C and DT-R, respectively and used in the assay described below.
2) Preparation of Samples
i) All the cell lines were cultured in Dulbecco's Modified Essential Medium (DMEM: 10% Fetal Calf Serum(FCS: Hyclone, USA)) including […] kanamycin (Meiji Seika, Japan) in humidified incubator under condition of 5% CO2 at 37° C.
ii) DT-C and DT-R cells were seeded at 2500 cells/well into flat-bottom 96 well multiplate (Sumitomo bakelite) and incubated for 24 hours.
iii) Test compounds were prepared as 1 mg/ml DMSO solution.
iv) The solution of test compounds were added to the culture. Tested compounds are used at the concentration from […] to 0.51 ng/ml with by 3-fold dilution.
v) After 24 hours, the culture supernatant was completely aspirated and […] of cell-lysing solution (PGC-50 (Toyo Ink, Japan)) was added before cells were dried up. In order to the cells were lysed completely, multiwell plates were left at room temperature for 10 to 30 min. The plates were wrapped up and stored at −20° C. till the day of measurement.
3) Measurement of Samples
i) Melt the samples by putting 96 well multiplate at 37° C. and add 90 μl/well 25 mM Tris (pH 7.5).
ii) Transfer 50 μl of the sample (110 μl) to the 96 well microplate for measurement (Microlite 1 (Dynatech)).
iii) Measure the samples by the luminometer, LUMINOUS CT9000D (Dia-Yatron, Japan). We used Pickagene luminescence kit PGL2000 or LT2.0 (Toyo Ink, Japan) as substrates for luminescence measurement (50 μl/well).
4) Judgment of the Results
i) The luciferase activity of DT-C cells and DT-R cells were plotted in the graph where the relative activity and the compound concentration were expressed as Y-axis and X-axis, respectively. We judged by the degree of dissociation between the activities of DT-C cells and DT-R cells as an index.
ii) Concretely, efficacy of the compound was expressed by two values described below.
b) Among the points of concentration tested, the concentration which is the nearest to 50% inhibition concentration at DT-C cells (IC50-C), was shown as an index of non-specific transcription-inhibitory effect or of cytotoxicity. In case of positive compounds, 50% inhibition concentration above the area of active concentration in DT-C cells was expressed as IC50-C.

Another experiment concerns human colon cancer HT29. Kind of experiment: In vitro cell growth inhibition test, MTT assay. The class given is cell-based. To be noted: MTT assay 4 days after compound addition. The gist of the method:
(§1)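 Panel of human carcinoma lines, including PANC-1, assessed in vitro; inhibition of cell growth quantified via MTT.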

For experiment [3], the system named is human lung adenocarcinoma A549. Kind of experiment: In vitro cell growth inhibition test, MTT assay. Conditions: MTT assay 4 days after compound addition. The class given is cell-based. The gist of the method:
as §1

The test system of experiment [4] is human pancreas cancer PANC-1. Put plainly: In vitro cell growth inhibition test, MTT assay. The class given is cell-based. Conditions: MTT assay 4 days after compound addition. The gist of the method:
as §1

Experiment [5] relates to human squamous lung cancer Ma44. Kind of experiment: In vitro cell growth inhibition test, MTT assay. The format is cell-based. To be noted: MTT assay 4 days after compound addition. The method, boiled down: as §1
Experiment [6] deals with human squamous lung cancer RERF-RC-AI. Put plainly: In vitro cell growth inhibition test, MTT assay. Conditions: MTT assay 4 days after compound addition. The format is cell-based. The method, boiled down: as §1

In the case of `CCNC(=Nc1ncncc1CSc1nnc(-c2ccccc2N)o1)NCC` [Compound A-33], the “MAC (Minimal Active Concentration)” value in experiment [1] worked out at 0.0137 µg/mL. For the same compound, the IC50-C in experiment [2] is greater than 10 µg/mL. The “IC50, HT29” value in the experiment with human colon cancer HT29 came out at 7.1 ng/mL (≈ 0.0178 µM). Besides, the “IC50, A549” value in experiment [3] was 12 ng/mL (≈ 0.0301 µM). Also, the “IC50, PANC-1” value in experiment [4] was determined as 7.6 ng/mL (≈ 0.0191 µM). In addition, the “IC50, Ma44” value in experiment [5] was 8.7 ng/mL (≈ 0.0218 µM). The “IC50, RERF-LC-AI” value in experiment [6] amounted to 4.0 ng/mL (≈ 0.01 µM).

As for `CCNC(=Nc1nc(C)ncc1CSc1nnc(-c2ccc(OC)cc2)o1)NCC` [Compound A-73], the “MAC (Minimal Active Concentration)” value in experiment [1] was 0.123 µg/mL. Besides, the IC50-C in experiment [2] is greater than 10 µg/mL. Moreover, the “IC50, HT29” value in the experiment with human colon cancer HT29 is 16 ng/mL (≈ 0.0374 µM). In experiment [3], the “IC50, A549” value is 52 ng/mL (≈ 0.122 µM). In addition, in experiment [4], the “IC50, PANC-1” value came to 29 ng/mL (≈ 0.0678 µM). Further, the “IC50, Ma44” value in experiment [5] came out at 48 ng/mL (≈ 0.112 µM). Moreover, the “IC50, RERF-LC-AI” value in experiment [6] is 12 ng/mL (≈ 0.0281 µM).

As to `CCNC(=Nc1nc(C)ncc1CSc1nnc(-c2ccc([N+](=O)[O-])cc2N)o1)NCC` [Compound A-75], in experiment [1], the “MAC (Minimal Active Concentration)” value is less than 0.000508 µg/mL. Further, the IC50-C in experiment [2] is greater than 10 µg/mL. In addition, the “IC50, HT29” value in the experiment on human colon cancer HT29 came to 3.8 ng/mL (≈ 0.00831 µM). Besides, the “IC50, A549” value in experiment [3] turned out to be 8.7 ng/mL (≈ 0.019 µM). Moreover, the “IC50, PANC-1” value in experiment [4] came out at 6.5 ng/mL (≈ 0.0142 µM). In addition, the “IC50, Ma44” value in experiment [5] stood at 5.8 ng/mL (≈ 0.0127 µM). Also, the “IC50, RERF-LC-AI” value in experiment [6] came to 4.0 ng/mL (≈ 0.00874 µM).

As for `CCNC(=Nc1nc(C)ncc1CSc1nnc(-c2ccc(Cl)cc2Cl)o1)NCC` [Compound A-80], the “MAC (Minimal Active Concentration)” value in experiment [1] was 0.370 µg/mL. For the same compound, in experiment [2], the IC50-C came to 3.33 µg/mL (≈ 7.14 µM). Besides, in the experiment with human colon cancer HT29, the “IC50, HT29” value was found to be 24 ng/mL (≈ 0.0515 µM). For the same compound, the “IC50, A549” value in experiment [3] was 100 ng/mL (≈ 0.214 µM). In addition, the “IC50, PANC-1” value in experiment [4] amounted to 50 ng/mL (≈ 0.107 µM). For the same compound, the “IC50, Ma44” value in experiment [5] worked out at 62 ng/mL (≈ 0.133 µM). Further, in experiment [6], the “IC50, RERF-LC-AI” value turned out to be 18 ng/mL (≈ 0.0386 µM).

Take `CCNC(=Nc1nc(C)ncc1CSc1nnc(-c2ccc(N)cc2F)o1)NCC` [Compound A-81]: the “MAC (Minimal Active Concentration)” value in experiment [1] came out at 0.0412 µg/mL. In experiment [2], the IC50-C was greater than 10 µg/mL. In the experiment with human colon cancer HT29, the “IC50, HT29” value was found to be 7 ng/mL (≈ 0.0163 µM). Moreover, the “IC50, A549” value in experiment [3] came to 23 ng/mL (≈ 0.0534 µM). The “IC50, PANC-1” value in experiment [4] came to 16 ng/mL (≈ 0.0372 µM). The “IC50, Ma44” value in experiment [5] came to 32 ng/mL (≈ 0.0743 µM). Also, in experiment [6], the “IC50, RERF-LC-AI” value was determined as 9 ng/mL (≈ 0.0209 µM).

Regarding `CCNC(=Nc1nc(C)ncc1CSc1nnc(-c2ccc(O)cc2)o1)NCC` [Compound A-88], the “MAC (Minimal Active Concentration)” value in experiment [1] was found to be 0.123 µg/mL. The compound also yielded an IC50-C in experiment [2] greater than 10 µg/mL. For the same compound, the “IC50, HT29” value with human colon cancer HT29 was 43 ng/mL (≈ 0.104 µM). The “IC50, A549” value in experiment [3] was found to be 140 ng/mL (≈ 0.339 µM). Further, the “IC50, PANC-1” value in experiment [4] came out at 36 ng/mL (≈ 0.0871 µM). Also, in experiment [5], the “IC50, Ma44” value was 97 ng/mL (≈ 0.235 µM). Moreover, in experiment [6], the “IC50, RERF-LC-AI” value stood at 20 ng/mL (≈ 0.0484 µM).

On to `CCNC(=Nc1nc(C)ncc1CSc1nnc(-c2ccc(N)c(O)c2)o1)NCC` [Compound A-89], for which the “MAC (Minimal Active Concentration)” value in experiment [1] was 0.123 µg/mL. Also, the IC50-C in experiment [2] is greater than 10 µg/mL. Also, the “IC50, HT29” value in the experiment with human colon cancer HT29 is 50 ng/mL (≈ 0.117 µM). For the same compound, in experiment [3], the “IC50, A549” value came out at 150 ng/mL (≈ 0.35 µM). Also, the “IC50, PANC-1” value in experiment [4] was determined as 49 ng/mL (≈ 0.114 µM). Also, in experiment [5], the “IC50, Ma44” value amounted to 860 ng/mL (≈ 2.01 µM). Also, in experiment [6], the “IC50, RERF-LC-AI” value came to 16 ng/mL (≈ 0.0373 µM).

Consider `CCNC(=Nc1nc(C)ncc1CSc1nnc(-c2ccc(C(F)(F)F)cc2)o1)NCC` [Compound A-106], for which, in experiment [1], the “MAC (Minimal Active Concentration)” value came out at 0.370 µg/mL. The compound also yielded an IC50-C in experiment [2] greater than 10 µg/mL. For the same compound, the “IC50, HT29” value in the experiment with human colon cancer HT29 is 43 ng/mL (≈ 0.0924 µM). The “IC50, A549” value in experiment [3] was found to be 82 ng/mL (≈ 0.176 µM). In experiment [4], the “IC50, PANC-1” value came out at 56 ng/mL (≈ 0.12 µM). For the same compound, the “IC50, Ma44” value in experiment [5] came out at 86 ng/mL (≈ 0.185 µM).
